Results as given in the supplement of paper PMC10307832.

Assays:
Test in all cases: relative viability (nuclei count vs DMSO), 5 days (fraction); higher = more cells survive
[1] = compound: CC1=C(C(=O)N2C=CSC2=N1)CCN3CCC(=C(C4=CC=CC=C4)C5=CC=C(C=C5)F)CC3 + COc1cccc2cc(-c3nc([C@H]4CC[C@H](C(=O)O)CC4)n4ncnc(N)c34)[nH]c12 [OSI-027] (partner 0.5 µM)
Outline: (§1)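 Five library-drug doses in √10 steps were combined with a fixed anchor-drug dose, or a single drug was given alone, by pin tool to lung cancer cell lines in 1536-well plates the day after seeding. Nuclei were stained and counted after 5 days. Relative viability is the nuclei count in treated wells over that in vehicle wells, taken as the median of duplicate plates.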

[2] = compound: CC1=C(C(=O)N2C=CSC2=N1)CCN3CCC(=C(C4=CC=CC=C4)C5=CC=C(C=C5)F)CC3 + N=C(N)NC(=N)NCCc1ccccc1 [Phenformin] (partner 250 µM)
Outline: as §1

[3] = compound: CC1=C(C(=O)N2C=CSC2=N1)CCN3CCC(=C(C4=CC=CC=C4)C5=CC=C(C=C5)F)CC3 + CC(=O)Nc1cccc(-n2c(=O)n(C3CC3)c(=O)c3c(Nc4ccc(I)cc4F)n(C)c(=O)c(C)c32)c1 [Trametinib] (partner 0.02 µM)
Outline: as §1

[4] = compound: CC1=C(C(=O)N2C=CSC2=N1)CCN3CCC(=C(C4=CC=CC=C4)C5=CC=C(C=C5)F)CC3
Outline: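 Following overnight incubation at 37 °C, lung cancer cell lines in 1536-well plates were pinned with five library-drug doses (not always all listed) in √10 steps on vehicle-anchored plates. The cells then spent 5 days without medium change before a combined fix, permeabilisation and Hoechst stain, 4× imaging and MetaXpress nuclear counts. Viability is the treated-to-vehicle ratio of nuclei, taken as the median across plates. Only plates with control CV below 25% and at least one doubling passed.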

Cell Line | relative viability ([1]; first compound 0.08 µM) | relative viability ([1]; first compound 0.253 µM) | relative viability ([1]; first compound 0.8 µM) | relative viability ([1]; first compound 2.53 µM) | relative viability ([1]; first compound 8 µM) | relative viability ([2]; first compound 0.08 µM) | relative viability ([2]; first compound 0.253 µM) | relative viability ([2]; first compound 0.8 µM) | relative viability ([2]; first compound 2.53 µM) | relative viability ([2]; first compound 8 µM) | relative viability ([3]; first compound 0.08 µM) | relative viability ([3]; first compound 0.253 µM) | relative viability ([3]; first compound 0.8 µM) | relative viability ([3]; first compound 2.53 µM) | relative viability ([3]; first compound 8 µM) | relative viability ([4]; 0.08 µM) | relative viability ([4]; 0.253 µM) | relative viability ([4]; 0.8 µM) | relative viability ([4]; 2.53 µM) | relative viability ([4]; 8 µM)
NCI-H2085 | 0.818 | 0.704 | 0.87 | 0.799 | 0.464 | 0.769 | 0.699 | 0.661 | 0.762 | 0.591 | 0.484 | 0.52 | 0.491 | 0.66 | 0.452 | 1 | 1.07 | 1.04 | 0.973 | 0.82
NCI-H2087 | 0.364 | 0.587 | 0.696 | 0.566 | 0.237 | 0.333 | 0.434 | 0.529 | 0.585 | 0.323 | 0.177 | 0.211 | 0.256 | 0.255 | 0.705 | 0.878 | 1.22 | 1.13 | 0.933 | 0.62
NCI-H2126 | 0.719 | 0.753 | 0.699 | 0.779 | 0.792 | 0.518 | 0.541 | 0.525 | 0.555 | 0.517 | 0.591 | 0.514 | 0.58 | 0.607 | 0.466 | 0.966 | 0.991 | 1.05 | 1.04 | 0.914
NCI-H2170 | 0.774 | 0.673 | 0.734 | 0.726 | 0.604 | 0.42 | 0.42 | 0.37 | 0.417 | 0.39 | 1.21 | 0.894 | 0.964 | 0.792 | 0.637 | 0.768 | 0.9 | 1.02 | 1 | 0.697
NCI-H2228 | 0.567 | 0.532 | 0.632 | 0.597 | 0.378 | 0.261 | 0.301 | 0.376 | 0.348 | 0.256 | 0.481 | 0.417 | 0.612 | 0.506 | 0.332 | 1.02 | 0.978 | 1.15 | 1.1 | 0.597
NCI-H2342 | 0.567 | 0.617 | 0.636 | 0.602 | 0.622 | 0.557 | 0.605 | 0.52 | 0.597 | 0.523 | 0.667 | 0.82 | 0.791 | 0.886 | 0.769 | 0.761 | 1.03 | 0.949 | 1.02 | 0.792
NCI-H2347 | 0.371 | 0.425 | 0.406 | 0.332 | 0.349 | 0.299 | 0.403 | 0.317 | 0.421 | 0.397 | 0.271 | 0.267 | 0.262 | 0.352 | 0.309 | 0.964 | 1.07 | 1.04 | 1.05 | 0.775
NCI-H2405 | 0.664 | 0.614 | 0.677 | 0.624 | 0.606 | 0.373 | 0.366 | 0.399 | 0.375 | 0.332 | 0.711 |  | 0.676 | 0.742 | 0.464 | 0.967 | 0.975 | 0.99 | 1.11 | 0.82
NCI-H3122 | 0.916 | 1.02 | 1.11 | 1.07 | 0.596 | 0.38 | 0.376 | 0.386 | 0.396 | 0.394 | 0.214 | 0.247 | 0.229 | 0.235 | 0.229 | 0.951 | 1.04 | 1.01 | 1.12 | 0.715
PC-3 [JPC-3] | 0.783 | 0.662 | 0.831 | 0.772 | 0.633 | 0.49 | 0.451 | 0.454 | 0.525 | 0.495 | 0.645 |  | 0.834 | 0.822 | 0.664 | 0.987 | 0.939 | 1.04 | 1.08 | 0.839
PC-14 | 0.529 | 0.981 | 1.04 | 1.17 | 0.507 | 0.624 | 0.558 | 0.518 | 0.661 | 0.296 | 0.523 | 0.984 | 0.927 | 1.61 | 0.476 | 0.939 | 1.02 | 1.06 | 1.1 | 0.624
RERF-LC-KJ | 0.411 | 0.583 | 0.546 | 0.523 | 0.497 | 0.345 | 0.427 | 0.414 | 0.534 | 0.289 | 0.833 | 0.893 | 0.837 | 0.794 | 0.578 | 0.932 | 1.01 | 0.964 | 0.989 | 0.662
SK-LU-1 | 0.396 | 0.341 | 0.38 | 0.318 | 0.294 | 0.672 | 0.475 | 0.585 | 0.576 | 0.42 | 0.526 | 0.424 | 0.479 | 0.645 | 0.402 | 0.845 | 0.955 | 1.18 | 1.15 | 0.648
SK-MES-1 | 0.405 | 0.524 | 0.587 | 0.554 | 0.706 | 0.608 | 0.693 | 0.699 | 0.73 | 0.522 | 0.578 | 0.523 | 0.545 | 0.594 | 0.474 | 1.02 | 1.01 | 1.03 | 1.09 | 0.692
SW 1573 |  | 0.645 | 0.716 | 0.676 | 0.351 |  | 0.343 | 0.4 | 0.377 | 0.24 | 0.562 | 0.678 | 0.646 | 0.652 | 0.354 | 0.892 | 1.12 | 1.08 | 1.04 | 0.61
UMC-11 | 0.591 | 0.469 | 0.504 | 0.48 | 0.351 | 0.366 | 0.326 | 0.321 | 0.338 | 0.255 | 0.461 |  | 0.701 | 0.778 | 0.556 | 0.914 | 0.952 | 0.936 | 1.17 | 0.713
